Assay results from patent publication US20250134882A1, “PROTEIN TYROSINE PHOSPHATASE INHIBITORS AND USES THEREOF” (Nerio Therapeutics, Inc., priority 2022, published 2025).

Legend:
[1] = system: murine B16F10 melanoma cell line; assay: B16F10 IFNγ-induced cellular growth inhibition assay (xCELLigence RTCA); format: cell-based; conditions: Mus musculus, B16-F10, 48 h; read-out: B16 IFNγ Mediated Growth Inhibition Assay: AVG IC50
Method: Example B: B16F10 Cellular Growth Inhibition Assay Compound activity was determined using an interferon gamma (IFNγ)-induced cellular growth inhibition assay with the murine B16F10 melanoma cell line on an Agilent xCELLigence Real-Time Cell Analysis platform (RTCA). RTCA E-Plate View 96 plates (Agilent, 300601010) were pre-equilibrated with 50 μL of assay media (DMEM+10% FBS, Gibco 10566-024, Gibco 10082-147) at 37° C. in a humidified incubator before taking an initial measurement of impedance (sweep). […] Cells were incubated at room temperature for 20 min to allow cells to settle before placing them in the xCELLigence reader and incubating overnight at 37° C., sweeping wells every 15 minutes. After 24 hours, well readings were paused, plates were removed from the incubator and compounds were added using a Tecan D300e dispenser. […] Assay plates were placed in the xCELLigence reader and swept every 15 minutes. After 48 hours, well readings were normalized to the time point immediately preceding compound addition and the area under the growth curve (AUC) was calculated by the RTCA software and exported.

[2] = molecular target: full-length human PTPN2 (TC45) (1-387) protein (Homo sapiens (Human), UniProt P17706); assay: Enzymatic assay with full-length PTPN2 and DiFMUP substrate; format: biochemical; conditions: 0.5 nM PTPN2, 100 μM DiFMUP, 30 min at room temperature
full-length human PTPN2 (TC45) (1-387) protein, sequence (P17706 other isoform, or with tags, fused parts or gaps): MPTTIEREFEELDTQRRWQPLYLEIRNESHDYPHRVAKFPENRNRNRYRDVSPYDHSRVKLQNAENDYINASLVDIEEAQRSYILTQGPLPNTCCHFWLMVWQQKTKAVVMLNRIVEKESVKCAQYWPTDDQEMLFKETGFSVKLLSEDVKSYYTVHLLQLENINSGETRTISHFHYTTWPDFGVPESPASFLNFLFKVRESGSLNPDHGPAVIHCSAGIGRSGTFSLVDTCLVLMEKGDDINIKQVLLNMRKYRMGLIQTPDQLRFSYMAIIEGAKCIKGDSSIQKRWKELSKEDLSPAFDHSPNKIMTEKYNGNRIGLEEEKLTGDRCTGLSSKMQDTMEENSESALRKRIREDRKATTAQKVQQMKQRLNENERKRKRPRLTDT
Source text: Compounds were subsequently added using a Tecan D300e dispenser. […] A four-parameter curve fit was used to determine IC50 values from % inhibition data.

Row | IC50 [1] | Compound | IC50 [2]
1 | 7.82 µM | CC(C)CCN[C@@H]1C[C@H]2C[C@@H]1c1c2cc(O)c(N2CC(=O)NS2(=O)=O)c1F [Example 3, 5-((1R,3R,4R)-5-fluoro-7-hydroxy-3-(isopentylamino)-1,2,3,4-tetrahydro-1,4-methanonaphthalen-6-yl)-1,2,5-thiadiazolidin-3-one 1,1-dioxide] | 
2 |  | CC(C)CCNC1CCc2nc(O)c(N3CC(=O)NS3(=O)=O)c(F)c2C1 (centres unmarked) [Example 4, 5-(4-fluoro-2-hydroxy-6-(isopentylamino)-5,6,7,8-tetrahydroquinolin-3-yl)-1,2,5-thiadiazolidin-3-one 1,1-dioxide] | 70.8 µM
